The values below come from patent publication US11999728B2, “Estrogen receptor modulators” (Recurium IP Holdings, LLC, priority 2020, dated 2024).

Structures are written as SMILES.

The test has as its system MCF7. As to the kind of experiment: Breast Cancer Cell Proliferation Assay (MCF-7), Cell Titer-Glo. It is filed as cell-based. The conditions noted are these: Homo sapiens, MCF7, 120 h, MCF7 cells, 5 days of compound exposure. On the procedure: Breast Cancer Cell Proliferation Assay (MCF-7)
MCF7 was expanded and maintained in the medium (Phenol red free DMEM/F12 (Hyclone SH30272.01) NEAA (Gibco11140-050) Na-pyruvate (Gibco 11360-070) and Re-stripped Charcoal stripped FBS (Gemini 100-119)). The cells were adjusted to a concentration of 3,000 cells per mL in the above media, and the cells were incubated (37° C., 5% CO2). The following day a 10-point, serial dilution of compounds was added to the cells at a final concentration ranging from 10-0.000005 μM for test compounds (17β-estradiol was used as a control). Additional cells were plated in 30 wells to serve as the day 1 (pretreatment) comparison. After 5 days of compound exposure, Cell Titer-Glo reagent was added to the cells and the relative luminescence units (RLUs) of each well was determined. Cell Titer-Glo was also added to 32 μL of medium without cells to obtain a background value. The plates were allowed to incubate at room temperature for 10 minutes to stabilize luminescent signal and the luminescence signal was recorded with EnSpire. The relative increase in cell number of each sample is determined as follows: (RLU sample-RLU background/RLU estrogen only treated cells-RLU background)×100=% inhibition.
Regarding `COc1cc(NC2CN(CCCF)C2)cnc1[C@@H]1c2[nH]c3ccccc3c2C[C@@H](C)N1C12CC(C1)C2` [Compound 94, 6-((1S,3R)-2-(bicyclo[1.1.1]pentan-1-yl)-3-methyl-2,3,4,9-tetrahydro-1H-pyrido[3,4-b]indol-1-yl)-N-(1-(3-fluoropropyl)azetidin-3-yl)-5-methoxypyridin-3-amine], the IC50 was no less than 250 nM.
The value for `C[C@H]1Cc2c([nH]c3ccccc23)[C@H](c2c(F)cc(O[C@@H]3CCN(CCCF)C3)cc2F)N1C12CC(C(N)=O)(C1)C2` (single isomer, unassigned) [Compound 33] was no less than 250 nM; that for `C[C@@H]1Cc2c([nH]c3ccccc23)[C@@H](c2ccc(N[C@H]3CCN(CCCF)C3)cn2)N1C12CC(C1)C2` [Compound 55, 6-((1S,3R)-2-(bicyclo[1.1.1]pentan-1-yl)-3-methyl-2,3,4,9-tetrahydro-1H-pyrido[3,4-b]indol-1-yl)-N—((S)-1-(3-fluoropropyl)pyrrolidin-3-yl)pyridin-3-amine] was no less than 250 nM; that for `CCCN1C[C@@H](Nc2ccc([C@@H]3c4[nH]c5ccccc5c4C[C@@H](C)N3C34CC(C3)C4)cc2)C[C@@H]1C` [Compound 89, (3S,5S)—N-(4-((1R,3R)-2-(bicyclo[1.1.1]pentan-1-yl)-3-methyl-2,3,4,9-tetrahydro-1H-pyrido[3,4-b]indol-1-yl)phenyl)-5-methyl-1-propylpyrrolidin-3-amine] was 25 to 250 nM.
`C[C@@H]1Cc2c([nH]c3ccccc23)[C@@H](c2ccc(O[C@H]3CCN(CCCF)C3)cn2)N1C12CC(C1)C2` (single isomer, unassigned) [Compound 12] displayed an IC50 of 25 to 250 nM.
The compound `C[C@@H]1Cc2c([nH]c3ccccc23)[C@@H](c2ccc(N[C@@H]3CN(CCCF)C[C@@H]3F)cc2)N1C12CC(C1)C2` (single isomer, unassigned) [Compound 73] displayed an IC50 of no more than 25 nM.
`C[C@H](F)CN1CC(Nc2ccc([C@@H]3c4[nH]c5ccccc5c4C[C@@H](C)N3C34CC(C3)C4)cc2)C1` (single isomer, unassigned) [Compound 83] showed an IC50 of no more than 25 nM.
For `C[C@@H]1Cc2c([nH]c3ccccc23)[C@@H](c2ccc(NCCN3CCC(CF)C3)nc2)N1C12CC(C1)C2` (stereo partly drawn) [Compound 29, 5-((1R,3R)-2-(bicyclo[1.1.1]pentan-1-yl)-3-methyl-2,3,4,9-tetrahydro-1H-pyrido[3,4-b]indol-1-yl)-N-(2-(3-(fluoromethyl)pyrrolidin-1-yl)ethyl)pyridin-2-amine] the value was no less than 250 nM; for `C#CCN1CC(Nc2ccc([C@@H]3c4[nH]c5ccccc5c4C[C@@H](C)N3C34CC(C3)C4)cc2)C1` [Compound 65, N-(4-((1R,3R)-2-(bicyclo[1.1.1]pentan-1-yl)-3-methyl-2,3,4,9-tetrahydro-1H-pyrido[3,4-b]indol-1-yl)phenyl)-1-(prop-2-yn-1-yl)azetidin-3-amine], no more than 25 nM; for `C[C@@H]1Cc2c([nH]c3ccccc23)[C@@H](c2ccc(N[C@@H]3CN(CCCF)C[C@@H]3O)cc2)N1C12CC(C1)C2` [Compound 78, (3S,4R)-4-((4-((1R,3R)-2-(bicyclo[1.1.1]pentan-1-yl)-3-methyl-2,3,4,9-tetrahydro-1H-pyrido[3,4-b]indol-1-yl)phenyl)amino)-1-(3-fluoropropyl)pyrrolidin-3-ol], no more than 25 nM.
For `C=CCN1CC(Nc2ccc([C@@H]3c4[nH]c5ccccc5c4C[C@@H](C)N3C34CC(C3)C4)cc2)C1` [Compound 64, 1-allyl-N-(4-((1R,3R)-2-(bicyclo[1.1.1]pentan-1-yl)-3-methyl-2,3,4,9-tetrahydro-1H-pyrido[3,4-b]indol-1-yl)phenyl)azetidin-3-amine] the value was no more than 25 nM.
The compound `C[C@@H]1Cc2c([nH]c3ccccc23)[C@@H](c2c(F)cc(O[C@@H]3CCN(CCCF)C3)cc2F)N1C12CC(C#N)(C1)C2` (single isomer, unassigned) [Compound 37] had an IC50 of no more than 25 nM.
In the case of `C[C@H]1Cc2c([nH]c3ccccc23)[C@H](c2c(F)cc(O[C@H]3CCN(CCCF)C3)cc2F)N1C12CC(C(N)=O)(C1)C2` (single isomer, unassigned) [Compound 32], the IC50 is no less than 250 nM.
For `C[C@]12CC[C@@H]3c4ccc(O)cc4C[C@@H](CCCCCCCCC[S+]([O-])CCCC(F)(F)C(F)(F)F)[C@H]3[C@@H]1CC[C@@H]2O` (some centres unmarked) [fulvestrant, reference compound] the value was no more than 25 nM.
`C[C@@H]1Cc2c([nH]c3ccccc23)[C@@H](c2ccc(O[C@H]3CCN(CCCF)C3)cc2)N1C12CC(C1)C2` (single isomer, unassigned) [Compound 8]: the IC50 was no more than 25 nM.
Consider `C[C@@H]1Cc2c([nH]c3ccccc23)[C@@H](c2ccc(NCCN3CCC(F)C3)nc2)N1C12CC(C1)C2` (stereo partly drawn) [Compound 28, 5-((1R,3R)-2-(bicyclo[1.1.1]pentan-1-yl)-3-methyl-2,3,4,9-tetrahydro-1H-pyrido[3,4-b]indol-1-yl)-N-(2-(3-fluoropyrrolidin-1-yl)ethyl)pyridin-2-amine], for which the IC50 is no less than 250 nM.
For `C[C@H]1Cc2c([nH]c3ccccc23)[C@H](c2c(F)cc(NC3CN(CCCF)C3)cc2F)N1C12CC(C(N)=O)(C1)C2` (single isomer, unassigned) [Compound 77] the value was no less than 250 nM; for `C[C@@H]1Cc2c([nH]c3ccccc23)[C@@H](c2ccc(OCCN3CC(CF)C3)cc2)N1C12CC(C1)C2` [Compound 24, (1R,3R)-2-(bicyclo[1.1.1]pentan-1-yl)-1-(4-(2-(3-(fluoromethyl)azetidin-1-yl)ethoxy)phenyl)-3-methyl-2,3,4,9-tetrahydro-1H-pyrido[3,4-b]indole], no more than 25 nM.
Consider `COc1cc(NC2CN(CCCF)C2)cc(F)c1[C@@H]1c2[nH]c3ccccc3c2C[C@@H](C)N1C12CC(C1)C2` [Compound 92, N-(4-((1R,3R)-2-(bicyclo[1.1.1]pentan-1-yl)-3-methyl-2,3,4,9-tetrahydro-1H-pyrido[3,4-b]indol-1-yl)-3-fluoro-5-methoxyphenyl)-1-(3-fluoropropyl)azetidin-3-amine], for which the IC50 is no more than 25 nM.
For `C[C@@H]1Cc2c([nH]c3ccccc23)[C@@H](c2ccc(O[C@@H]3CCN(CCCF)C3)nc2)N1C12CC(C1)C2` (single isomer, unassigned) [Compound 9] the value was 25 to 250 nM; for `CCCN1CC(Oc2ccc([C@@H]3c4[nH]c5ccccc5c4C[C@@H](C)N3C34CC(C3)C4)cn2)C1` [Compound 43, (1R,3R)-2-(bicyclo[1.1.1]pentan-1-yl)-3-methyl-1-(6-((1-propylazetidin-3-yl)oxy)pyridin-3-yl)-2,3,4,9-tetrahydro-1H-pyrido[3,4-b]indole], 25 to 250 nM.
`C[C@@H]1Cc2c([nH]c3ccccc23)[C@@H](c2c(F)cc(OCCN3CCCC3)cc2F)N1C12CC(C1)C2` [Compound 26, (1R,3R)-2-(bicyclo[1.1.1]pentan-1-yl)-1-(2,6-difluoro-4-(2-(pyrrolidin-1-yl)ethoxy)phenyl)-3-methyl-2,3,4,9-tetrahydro-1H-pyrido[3,4-b]indole] yielded an IC50 of no less than 250 nM.
For `C[C@@H]1Cc2c([nH]c3ccccc23)[C@@H](c2c(F)cc(NC3CN(CCF)C3)cc2F)N1C12CC(C1)C2` [Compound 56, N-(4-((1R,3R)-2-(bicyclo[1.1.1]pentan-1-yl)-3-methyl-2,3,4,9-tetrahydro-1H-pyrido[3,4-b]indol-1-yl)-3,5-difluorophenyl)-1-(2-fluoroethyl)azetidin-3-amine] the value was no more than 25 nM.
